Experimental data: US10975068B2, “6-aminopyridin-3-yl thiazoles as modulators of RORγT” (Janssen Pharmaceutica NV, priority 2016, dated 2021)
Like-named read-outs stand apart in the source and are kept apart here.

Tests used:
full-length human RORγt = full-length human RORγt (Homo sapiens (Human), UniProt P51449); test: RORγt (full-length human) reporter assay, Conditions B or C; type: cell-based; settings: for inhibition at 1 µM: at 1 μM compound concentration; for inhibition at 1 µM / inhibition at 3 µM: read-out: RORγt (FL) Reporter Assay B or C, % inhibition; for inhibition at 3 µM: at 3 μM compound concentration; for RORγt (FL) Reporter Assay B or C, % inhibition (value marked *): marked *: footnote not given; for inhibition at 6 µM: read-out: RORγt (FL) Reporter Assay B or C, % inhibition @ 6 μM, Conditions B or C
How it was run: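 Readout is dual luciferase: firefly (GAL4-driven) normalized to DMSO-only and saturating-reference controls, then to CMV-Renilla. Full-length human RORγt fused to GAL4-DBD was transiently expressed in HEK293T; compound exposure ran overnight (16-20 h) starting 4-6 h after transfection, final FBS 1.3%, DMSO 0.1%.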

[1] = target: human RORγt ligand binding domain (RORγt LBD) (Homo sapiens (Human), UniProt P51449); test: RORγt ThermoFluor® assay (thermal shift binding); settings: read-out: ThermoFluor® Assay, Kd
How it was run: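 Binding was inferred from thermal stabilisation (ΔTm) of the E. coli-expressed RORγt LBD (0.065 mg/mL), monitored by 1,8-ANS (60 μM) emission at 500 nm during a 1 °C/min ramp. Buffer was Hepes 100 mM pH 7.0 with NaCl, GSH and Tween-20.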

[2] = RORγt (FL) Reporter Assay B or C, IC50
[3] = read-out: RORγt (FL) Reporter Assay B or C, IC50
[4] = Conditions B or C, read-out: RORγt (FL) Reporter Assay B or C, IC50

full-length human RORγt, sequence (P51449 other isoform, or with tags, fused parts or gaps): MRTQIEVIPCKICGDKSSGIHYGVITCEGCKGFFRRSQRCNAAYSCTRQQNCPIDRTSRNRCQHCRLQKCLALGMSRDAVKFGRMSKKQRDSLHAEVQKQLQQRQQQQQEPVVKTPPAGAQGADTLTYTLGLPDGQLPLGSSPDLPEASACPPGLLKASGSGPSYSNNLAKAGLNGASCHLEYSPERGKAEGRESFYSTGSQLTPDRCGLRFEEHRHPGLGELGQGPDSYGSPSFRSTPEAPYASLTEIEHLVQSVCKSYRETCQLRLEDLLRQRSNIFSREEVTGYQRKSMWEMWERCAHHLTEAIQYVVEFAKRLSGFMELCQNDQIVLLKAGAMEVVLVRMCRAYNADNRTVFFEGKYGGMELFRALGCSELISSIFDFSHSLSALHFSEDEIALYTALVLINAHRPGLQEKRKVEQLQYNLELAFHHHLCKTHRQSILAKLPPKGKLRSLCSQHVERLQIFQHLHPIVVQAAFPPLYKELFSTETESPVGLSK
human RORγt ligand binding domain (RORγt LBD), sequence (P51449 other isoform, or with tags, fused parts or gaps): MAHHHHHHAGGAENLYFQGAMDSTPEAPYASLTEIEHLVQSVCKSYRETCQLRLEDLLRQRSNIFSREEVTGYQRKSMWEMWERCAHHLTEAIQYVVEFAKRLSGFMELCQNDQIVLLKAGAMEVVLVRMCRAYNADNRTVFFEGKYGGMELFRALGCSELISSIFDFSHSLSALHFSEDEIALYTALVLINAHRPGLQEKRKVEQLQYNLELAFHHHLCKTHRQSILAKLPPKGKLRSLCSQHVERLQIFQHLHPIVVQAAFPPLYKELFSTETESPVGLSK

Structure (SMILES)	IC50 (full-length human RORγt; [2]) [µM]	inhibition at 1 µM (full-length human RORγt) [%]	Kd [1] [µM]	inhibition at 3 µM (full-length human RORγt) [%]	IC50 (full-length human RORγt; [3]) [µM]	RORγt (FL) Reporter Assay B or C, % inhibition (value marked *) (full-length human RORγt; Conditions B or C)	IC50 (full-length human RORγt; [4]) [µM]	inhibition at 6 µM (full-length human RORγt) [%]
O=C(N[C@H]1COC[C@@H]1O)c1nc(C(=O)N2C3CCC2CC3)c(-c2cnc(N[C@@H](C3CC3)C(F)(F)F)cc2C(F)F)s1 [Example 417, 4-((1s,4s)-7-Azabicyclo[2.2.1]heptane-7-carbonyl)-5-[6-[[(1S)-1-cyclopropyl-2,2,2-trifluoro-ethyl]amino]-4-(difluoromethyl)-3-pyridyl]-N-[(3S,4R)-4-hydroxytetrahydrofuran-3-yl]thiazole-2-carboxamide]	0.028	94	0.0024	–	–	–	–	–
CC[C@H](Nc1cc(C(F)F)c(-c2sc(C(=O)N[C@@H]3CC[C@@H](O)C3)nc2C(=O)N2CCC[C@@H]2C)cn1)C(F)(F)F [Example 399, 5-[4-(Difluoromethyl)-6-[[(1S)-1-(trifluoromethyl)propyl]amino]-3-pyridyl]-N-[(1R,3R)-3-hydroxycyclopentyl]-4-[(2S)-2-methylpyrrolidine-1-carbonyl]thiazole-2-carboxamide]	–	–	0.0012	100	0.025	–	–	–
C[C@H](NC(=O)c1nc(C(=O)N2C3CCC2CC3)c(-c2cnc(NC3(C)CCC3)cc2C(F)F)s1)C(C)(C)O [Example 189]	–	–	0.0036	–	–	101* %	0.098	–
CC[C@H](Nc1cc(C(F)F)c(-c2sc(C(=O)N3CC4(CCO4)C3)nc2C(=O)N2CCC[C@@H]2C)cn1)C(F)(F)F [Example 385, [5-[4-(Difluoromethyl)-6-[[(1S)-1-(trifluoromethyl)propyl]amino]-3-pyridyl]-2-(3-oxa-6-azaspiro[3.3]heptane-6-carbonyl)thiazol-4-yl]-[(2S)-2-methylpyrrolidin-1-yl]methanone]	–	–	0.1	95	0.35	–	–	–
C[C@H]1CC(F)(F)CN1C(=O)c1nc(C(=O)NC2COCC2O)sc1-c1cnc(NC2(C)CCC2)cc1C(F)(F)F (stereo in doubt) [Example 185, 4-((S)-4,4-Difluoro-2-methylpyrrolidine-1-carbonyl)-N-((3S,4R)-4-hydroxytetrahydrofuran-3-yl)-5-(6-((1-methylcyclobutyl)amino)-4-(trifluoromethyl)pyridine-3-yl)thiazole-2-carboxamide]	–	–	0.00023	–	–	101* %	0.015	–
CC(C)(C)Nc1cc(C(F)F)c(-c2sc(C(=O)N[C@@H]3CC[C@@H](O)C3)nc2C(=O)N2C3CCC2CC3)cn1 [Example 430, 4-((1s,4s)-7-Azabicyclo[2.2.1]heptane-7-carbonyl)-5-[6-(tert-butylamino)-4-(difluoromethyl)-3-pyridyl]-N-[(1R,3R)-3-hydroxycyclopentyl]thiazole-2-carboxamide]	0.013	130	0.0006	–	–	–	–	–
C[C@H]1CCCN1C(=O)c1nc(C(=O)N2CC(C)(O)C2)sc1-c1cnc(NC(C)(C)C)cc1C(F)F [Example 149, [5-[6-(tert-Butylamino)-4-(difluoromethyl)-3-pyridyl]-2-(3-hydroxy-3-methyl-azetidine-1-carbonyl)thiazol-4-yl]-[(2S)-2-methylpyrrolidin-1-yl]methanone]	–	–	0.02	–	–	108* %	0.1	–
C[C@H]1CCCN1C(=O)c1nc(C(=O)NCC(C)(C)O)sc1-c1cnc(NC(C)(C)C2CC2)cc1C(F)(F)F [Example 56, (S)-5-(6-((2-Cyclopropylpropan-2-yl)amino)-4-(trifluoromethyl)pyridin-3-yl)-N-(2-hydroxy-2-methylpropyl)-4-(2-methylpyrrolidine-1-carbonyl)thiazole-2-carboxamide]	–	–	0.00034	–	–	106* %	0.0036	–
CC[C@H](Nc1cc(C(F)F)c(-c2sc(C(=O)N[C@H]3C[C@H]3O)nc2C(=O)N2CCC[C@@H]2C)cn1)C(F)(F)F (relative stereo) [Example 212, 5-(4-(Difluoromethyl)-6-(((S)-1,1,1-trifluorobutan-2-yl)amino)pyridin-3-yl)-N-((1S*,2R*)-2-hydroxycyclopropyl)-4-((S)-2-methylpyrrolidine-1-carbonyl)thiazole-2-carboxamide]	–	–	0.013	–	–	104* %	0.3	–
C[C@H](Nc1cc(C(F)F)c(-c2sc(C(=O)N[C@H](C)C(C)(C)O)nc2C(=O)N2CC(F)(F)C[C@@H]2C)cn1)C(F)(F)F [Example 198]	–	–	0.0025	–	–	102* %	0.053	–
CC[C@H](Nc1cc(C(F)F)c(-c2sc(C(=O)N[C@H]3COC[C@@H]3O)nc2C(=O)N2C3CCC2CC3)cn1)C(F)(F)F [Example 209, 4-((1s,4s)-7-Azabicyclo[2.2.1]heptane-7-carbonyl)-5-(4-(difluoromethyl)-6-(((1S)-1-(trifluoromethyl)propyl)amino)-3-pyridyl)-N-((3S,4R)-4-hydroxytetrahydrofuran-3-yl]thiazole-2-carboxamide]	–	–	0.0034	–	–	99* %	0.046	–
C[C@H]1CCCN1C(=O)c1nc(C(=O)NCC2(O)COC2)sc1-c1cnc(NC2CCCC2)cc1C(F)F [Example 73, (S)-5-(6-(Cyclopentylamino)-4-(difluoromethyl)pyridin-3-yl)-N-((3-hydroxyoxetan-3-yl)methyl)-4-(2-methylpyrrolidine-1-carbonyl)thiazole-2-carboxamide]	–	–	0.011	–	–	104* %	0.074	–
C[C@H]1CCCN1C(=O)c1nc(C(=O)N[C@H](C)C(C)(C)O)sc1-c1cnc(NCC(C)(C)C)cc1C(F)(F)F [Example 334, 5-[6-(2,2-Dimethylpropylamino)-4-(trifluoromethyl)-3-pyridyl]-N-[(1R)-2-hydroxy-1,2-dimethyl-propyl]-4-[(2S)-2-methylpyrrolidine-1-carbonyl]thiazole-2-carboxamide]	–	–	0.0014	106	0.007	–	–	–
C[C@H]1CCCN1C(=O)c1nc(C(=O)N2CC(O)C2)sc1-c1cnc(NC(C)(C)C)cc1C(F)(F)F [Example 250, [5-[6-(tert-Butylamino)-4-(trifluoromethyl)-3-pyridyl]-2-(3-hydroxyazetidine-1-carbonyl)thiazol-4-yl]-[(2S)-2-methylpyrrolidin-1-yl]methanone]	–	–	0.0081	106	0.028	–	–	–
C[C@H]1CCCN1C(=O)c1nc(C(=O)N[C@H]2COC[C@@H]2O)sc1-c1cnc(NC(C)(C)C)cc1C(F)F [Example 401, 5-[6-(tert-Butylamino)-4-(difluoromethyl)-3-pyridyl]-N-[(3S,4R)-4-hydroxytetrahydrofuran-3-yl]-4-[(2S)-2-methylpyrrolidine-1-carbonyl]thiazole-2-carboxamide]	–	102	0.0043	–	0.038	–	–	–
C[C@H](Nc1cc(C(F)(F)F)c(-c2sc(C(=O)NCC(C)(C)O)nc2C(=O)N2CCCC[C@@H]2C)cn1)C1CC1 [Example 39, 5-(6-(((S)-1-Cyclopropylethyl)amino)-4-(trifluoromethyl)pyridin-3-yl)-N-(2-hydroxy-2-methylpropyl)-4-((S)-2-methylpiperidine-1-carbonyl)thiazole-2-carboxamide]	–	–	0.00012	–	–	–	0.013	105
C[C@H]1CCCN1C(=O)c1nc(C(=O)NCC(C)(C)O)sc1-c1cnc(N[C@H](C)C(C)(C)C)cc1C(F)F [Example 298, 5-(4-(Difluoromethyl)-6-(((R)-3,3-dimethylbutan-2-yl)amino)pyridin-3-yl)-N-(2-hydroxy-2-methylpropyl)-4-((S)-2-methylpyrrolidine-1-carbonyl)thiazole-2-carboxamide]	–	–	0.0034	99	0.0077	–	–	–
C[C@H]1CC(F)(F)CN1C(=O)c1nc(C(=O)NCC(C)(C)O)sc1-c1cnc(NC2CCCC2)cc1C(F)F [Example 44, (S)-5-(6-(Cyclopentylamino)-4-(difluoromethyl)pyridin-3-yl)-4-(4,4-difluoro-2-methylpyrrolidine-1-carbonyl)-N-(2-hydroxy-2-methylpropyl)thiazole-2-carboxamide]	–	–	0.0025	–	–	–	0.02	111
CC[C@H](Nc1cc(C(F)F)c(-c2sc(C(=O)N[C@@H]3CCC[C@H]3O)nc2C(=O)N2CC(F)(F)C[C@@H]2C)cn1)C(F)(F)F [Example 425, 4-[(2S)-4,4-Difluoro-2-methyl-pyrrolidine-1-carbonyl]-5-[4-(difluoromethyl)-6-[[(1S)-1-(trifluoromethyl)propyl]amino]-3-pyridyl]-N-[(1R,2R)-2-hydroxycyclopentyl]thiazole-2-carboxamide]	–	–	0.00018	103	0.05	–	–	–
CNC(=O)c1nc(C(=O)N2CCC[C@@H]2C)c(-c2cnc(NC(C)(C)C)cc2C(F)(F)F)s1 [Example 307, (S)-5-(6-(tert-Butylamino)-4-(trifluoromethyl)pyridin-3-yl)-N-methyl-4-(2-methylpyrrolidine-1-carbonyl)thiazole-2-carboxamide]	–	–	0.043	102	0.15	–	–	–
